From patent publication US20230096766A1, “AMINO ACID HAVING FUNCTIONAL GROUP CAPABLE OF INTERMOLECULAR HYDROGEN BONDING, PEPTIDE COMPOUND CONTAINING SAME AND METHOD FOR PRODUCTION THEREOF” (Chugai Seiyaku Kabushiki Kaisha, priority 2018, published 2023) come the findings set out here.

*1 amine or outer side, *2 acyl side, *3 side chain or, on linkers, in order; H or OH if unused. Where a SMILES comes first, the peptide text is derived from it. Bridges are numbered along the chain shown (N, C = ends). [ ]: non-standard residue; d: D form. The star is where a group is joined. NMeHph(3-OMe-4-CONHMe) = CNC(=O)c1ccc(CC[C@H](NC)C(=O)O)cc1OC; hPhe(3-OMe,4-CONHMe) = CNC(=O)c1ccc(CC[C@H](N)C(=O)O)cc1OC; X11 = CNC(=O)c1ccc(CCN(CC(=O)[*:2])[*:1])cc1OC; NMePhe(3-Cl) = CN[C@@H](Cc1cccc(Cl)c1)C(=O)O; X12 = O=C([C@H](CCCC(O)C(F)(F)F)N[*:1])[*:2]; Tyr(3-F) = N[C@@H](Cc1ccc(O)c(F)c1)C(=O)O; NMeF = CN[C@@H](Cc1ccccc1)C(=O)O; NMeGABA = CN(CCCC(=O)[*:2])[*:1]; NMeL = CN[C@@H](CC(C)C)C(=O)O; NMeAbu = CC[C@H](NC)C(=O)O; NMeA = CN[C@@H](C)C(=O)O; Piperidide = C1CCN(*)CC1; Abu = CC[C@H](N)C(=O)O; CH2CMe2OH = CC(C)(O)C*; CH2CONHMe = CNC(=O)C*; NBuGly = CCCCNCC(=O)O; Isopentyl = CC(C)CC*; NPrGly = CCCNCC(=O)O; Propyl(3-OH) = OCCC*; Sar = CNCC(=O)O; tBu = CC(C)(C)*

A short description of the first data set: in vitro. Conditions: human, Caco-2, Caco-2 (cm/sec).
For orientation: Papp means the rate of passage across a membrane or cell layer, normalised by area and donor concentration. High values mean fast passage, low ones slow passage. Compound `CC[C@@H]1NC(=O)[C@H](CCc2ccc(C(=O)NC)c(OC)c2)N(C)C(=O)[C@H](CC(C)C)N(C)C(=O)[C@H](CC(C)C)NC(=O)[C@H](C)N(C)C(=O)C[C@@H](C(=O)N2CCCCC2)NC(=O)[C@H](CC(C)C)N(C)C(=O)CN(C)C(=O)[C@H]([C@@H](C)O)NC(=O)[C@H](CC(C)C)N(C)C(=O)[C@H](Cc2ccccc2)N(C)C1=O` [AP229] ([NMeA]L[NMeL][NMeHph(3-OMe-4-CONHMe)][Abu][NMeF][NMeL]T[Sar][NMeL]D-Piperidide; lactam N-11) yielded a Papp of 0.43 ×10⁻⁶ cm/s.

`CC(C)C[C@@H]1NC(=O)[C@H](Cc2cccc(Cl)c2)N(C)C(=O)[C@H](Cc2ccccc2)N(C)C(=O)[C@H](COCCCO)NC(=O)[C@H](CC(C)C)N(C)C(=O)CCCN(C)C(=O)C[C@@H](C(=O)N2CCCCC2)NC(=O)[C@H](CC(C)C)N(C)C(=O)[C@H](CC(C)C)N(C)C(=O)[C@H]([C@@H](C)O)NC(=O)[C@H](CC(C)C)N(C)C1=O` [AP91] ([NMeGABA][NMeL]S(Propyl(3-OH))[NMeF][NMePhe(3-Cl)]L[NMeL]T[NMeL][NMeL]D-Piperidide; lactam N-11): the Papp stood at 0.14 ×10⁻⁶ cm/s. In the case of `CC(C)C[C@@H]1NC(=O)[C@H](Cc2ccccc2)N(C)C(=O)[C@H]2CCCN2C(=O)C[C@@H](C(=O)N2CCCCC2)NC(=O)[C@H](Cc2ccccc2)N(C)C(=O)[C@H](Cc2ccccc2)N(C)C(=O)[C@H](COC(C)(C)C)NC(=O)[C@H](CC(C)C)N(C)C(=O)CN(C)C(=O)[C@H]([C@@H](C)O)NC(=O)[C@H](CC(C)C)N(C)C1=O` [pd206] ([dP][NMeF]L[NMeL]T[Sar][NMeL]S(tBu)[NMeF][NMeF]D-Piperidide; lactam N-11), the Papp worked out at 1.8 ×10⁻⁶ cm/s. Still for that read-out and setting: the figure for `CC(C)CCOC[C@@H]1NC(=O)[C@H](Cc2ccccc2)N(C)C(=O)[C@H](Cc2ccccc2)N(C)C(=O)[C@H](COCC(C)(C)O)NC(=O)[C@H](CC(C)C)N(C)C(=O)CCCN(C)C(=O)C[C@@H](C(=O)N2CCCCC2)NC(=O)[C@H](CC(C)C)N(C)C(=O)[C@H](CC(C)C)N(C)C(=O)[C@H]([C@@H](C)O)NC(=O)[C@H](CC(C)C)N(C)C1=O` [AP03] ([NMeGABA][NMeL]S(CH2CMe2OH)[NMeF][NMeF]S(Isopentyl)[NMeL]T[NMeL][NMeL]D-Piperidide; lactam N-11) is 0.46 ×10⁻⁶ cm/s; for `CC(C)C[C@H]1NC(=O)C[C@@H](C(=O)N2CCCCC2)NC(=O)[C@H](C)N(C)C(=O)[C@H](CC(C)C)N(C)C(=O)[C@H](COC(C)(C)C)NC(=O)[C@H](CC(C)C)N(C)C(=O)CN(C)C(=O)[C@H]([C@@H](C)O)NC(=O)[C@H](CC(C)C)N(C)C(=O)[C@H](Cc2ccc(O)c(F)c2)NC(=O)[C@H](Cc2ccccc2)N(C)C1=O` [pd118] ([dL][NMeF][Tyr(3-F)][NMeL]T[Sar][NMeL]S(tBu)[NMeL][NMeA]D-Piperidide; lactam N-11) it is 0.2 ×10⁻⁶ cm/s; for `CC[C@H](C)[C@@H]1NC(=O)[C@H](CC(C)C)N(C)C(=O)CN(C)C(=O)C[C@@H](C(=O)N2CCCCC2)NC(=O)[C@H](CC(C)C)N(C)C(=O)[C@H](COC(C)(C)C)NC(=O)[C@H](CC(C)C)N(C)C(=O)[C@H](Cc2ccccc2)N(C)C(=O)CN(CCc2ccc(C(=O)NC)c(OC)c2)C(=O)[C@H]([C@@H](C)O)NC(=O)[C@H](CC)N(C)C1=O` [AP218] ([Sar][NMeL]I[NMeAbu]T[X11][NMeF][NMeL]S(tBu)[NMeL]D-Piperidide; lactam N-11) it is 0.55 ×10⁻⁶ cm/s. Still for that read-out and setting: to `CC[C@H](C)[C@@H]1NC(=O)[C@H](CC(C)C)NC(=O)[C@H](CC(C)C)N(C)C(=O)[C@H](CC(C)C)NC(=O)C[C@@H](C(=O)N2CCCCC2)NC(=O)[C@H](CC(C)C)N(C)C(=O)[C@H]([C@@H](C)O)NC(=O)[C@H](CCc2ccc(C(=O)NC)c(OC)c2)NC(=O)[C@H](CC(C)C)N(C)C1=O` [AP263] (L[NMeL]LI[NMeL][hPhe(3-OMe,4-CONHMe)]T[NMeL]D-Piperidide; lactam N-9) belongs 1.8 ×10⁻⁶ cm/s.

Still in this data set, the particulars now being: human, Caco-2, Caco-2 (cm/sec) Papp.
The compound `CC(C)C[C@H]1C(=O)N(C)[C@@H](Cc2ccccc2)C(=O)N(C)[C@@H](CC(C)C)C(=O)N[C@H](C(=O)N(C)[C@@H](Cc2ccccc2)C(=O)N[C@@H](Cc2ccccc2)C(=O)N2CCCCC2)CC(=O)N[C@H](C(C)C)C(=O)N[C@@H](C)C(=O)N[C@@H]([C@@H](C)O)C(=O)N(C)[C@@H](C)C(=O)N[C@@H](Cc2ccccc2)C(=O)N1C` [pd241] ([dV]AT[NMeA]F[NMeL][NMeF][NMeL]D[NMeF]F-Piperidide; lactam N-9) registered a Papp of 0.058 ×10⁻⁶ cm/s.

The data set is the same for the next values; noted with them: human, Caco-2, Caco-2 (membrane permeability).
Turning to `CCCCN1CC(=O)N(C)[C@@H](Cc2ccccc2)C(=O)N[C@@H]([C@@H](C)CC)C(=O)N(C)[C@@H](CC(C)C)C(=O)N[C@@H]([C@@H](C)O)C(=O)N(CCC)CC(=O)N(C)[C@@H](Cc2ccccc2)C(=O)N(C)[C@@H](CC(C)C)C(=O)N[C@@H](COCC(=O)NC)C(=O)N(C)[C@@H](CC(C)C)C(=O)N[C@H](C(=O)N2CCCCC2)CC1=O` [Compound I06] ([NBuGly][NMeF]I[NMeL]T[NPrGly][NMeF][NMeL]S(CH2CONHMe)[NMeL]D-Piperidide; lactam N-11), the Papp came to 0.24 ×10⁻⁶ cm/s. As to `CC[C@H]1C(=O)N[C@@H](COC(C)(C)C)C(=O)N(C)[C@@H](Cc2ccccc2)C(=O)N(C)[C@@H](CC(C)C)C(=O)N[C@H](C(=O)N2CCCCC2)CC(=O)N[C@H](CC(C)C)C(=O)N(C)[C@@H](Cc2ccccc2)C(=O)N[C@@H](CC(C)C)C(=O)N(C)[C@@H](CC)C(=O)N[C@@H](CCCC(O)C(F)(F)F)C(=O)N(C)CC(=O)N1C` (stereo partly drawn) [Compound D10] ([dL][NMeF]L[NMeAbu][X12][Sar][NMeAbu]S(tBu)[NMeF][NMeL]D-Piperidide; lactam N-11), the Papp turned out to be 0.81 ×10⁻⁶ cm/s.
